Patent publication US20260364079A1 (Principia Biopharma Inc., priority 2022, published 2026)
“And” between values parts separate entries of the source, which are not always exact repeats. Identical values can stand only once.

Experiment: phase 1/2 study in relapsed/refractory ITP (NCT03395210), safety
Details: for Time From Initial Treatment to Rescue Use: single patient
Source text: The Safety Population was used for all safety analyses.
Pre-existing conditions that worsened during a study were reported as AEs.
Safety was graded per NCI CTCAE, version 4.0.

[1] = treatment-related TEAE, any grade
[2] = treatment-related TEAE, grade 1
[3] = treatment-related TEAE, grade 2
[4] = treatment-related TEAE, grade 3/4

SMILES: CC(C)(C=C(C#N)C(=O)N1CCC[C@@H](n2nc(-c3ccc(Oc4ccccc4)cc3F)c3c(N)ncnc32)C1)N1CCN(C2COC2)CC1 (mixture of isomers) [rilzabrutinib, (R)-2-[3-[4-amino-3-(2-fluoro-4-phenoxy-phenyl)pyrazolo[3,4-d]pyrimidin-1-yl]piperidine-1-carbonyl]-4-methyl-4-[4-(oxetan-3-yl)piperazin-1-yl]pent-2-enenitrile]
- Rescue medication received but discontinued due to unrelated adverse events (in vivo): Two
- TEAE leading to discontinuation: grade 3 GI hemorrhage (in vivo): 1 patient
- TEAE leading to discontinuation: grade 4 Evans syndrome (in vivo): 1 patient
- TEAE leading to discontinuation: grade 4 thrombocytopenia (in vivo): 1 patient
- TEAE resulting in study drug discontinuation (in vivo): Seven
- TEAE resulting in study drug discontinuation: administrative and site conditions (in vivo): 1 (2%) patients (%)
- TEAE resulting in study drug discontinuation: gastrointestinal (GI) disorders (in vivo): 4 (70%) patients (%)
- TEAE resulting in study drug discontinuation: lymphatic system disorders (in vivo): 2 (40%) patients (%)
- TEAEs leading to study drug discontinuation reported as serious adverse events (in vivo): Four
- Use of rescue medication as cause of study discontinuation (in vivo): four
- serious adverse events leading to discontinuation related to treatment (in vivo): none were related to rilzabrutinib treatment
- toxicity across all doses (in vivo): only low-grade toxicity across all doses
- treatment-related discontinuation: grade 1 fatigue (in vivo): 1 patient
- treatment-related discontinuation: grade 2 GI disorders (in vivo): 2 patients
- infections, thrombotic events, cardiac arrhythmias, liver toxicity, or increased bleeding (limited follow up time): no evidence of infections, thrombotic events, cardiac arrhythmias, liver toxicity, or increased bleeding
- adverse events typically associated with BTK inhibitors (neutropenia, treatment-related infections, bleeding, thrombotic events, fungal infections, atrial fibrillation): no signs or symptoms of adverse events typically associated with BTK inhibitors
- related treatment-emergent serious adverse events (open-label Phase 1/2 study in ITP): no related treatment-emergent serious adverse events
- Time From Initial Treatment to Rescue Use (200 mg qd, baseline 24 × 10^9/L): Day 36
- Time From Initial Treatment to Rescue Use (300 mg bid, baseline 3 × 10^9/L): Day 29
- Time From Initial Treatment to Rescue Use (400 mg bid, baseline 18 × 10^9/L): Day 11
- Abdominal discomfort [1]: 1 (2) number of patients (percent)
- Abdominal distension [1]: 4 (7) number of patients (percent)
- Abdominal pain [1]: 2 (3) number of patients (percent)
- Abnormal dreams [1]: 1 (2) number of patients (percent)
- Akathisia [1]: 1 (2) number of patients (percent)
- Alopecia [1]: — (represents zero events)
- Anemia [1]: — (represents zero events)
- Any TEAE [1]: 31 (52) number of patients (percent)
- Arthralgia [1]: — (represents zero events)
- Arthropod bite [1]: — (represents zero events)
- Back pain [1]: 1 (2) number of patients (percent)
- Conjunctival hemorrhage [1]: — (represents zero events)
- Contusion [1]: 1 (2) number of patients (percent)
- Costochondritis [1]: — (represents zero events)
- Cough [1]: — (represents zero events)
- Decreased appetite [1]: 1 (2) number of patients (percent)
- Defecation urgency [1]: 1 (2) number of patients (percent)
- Diarrhea [1]: 19 (32) number of patients (percent)
- Dizziness [1]: — (represents zero events)
- Dyspepsia [1]: 1 (2) number of patients (percent)
- Dyspnea [1]: — (represents zero events)
- Dyspnea exertional [1]: — (represents zero events)
- Edema [1]: 1 (2) number of patients (percent)
- Epigastric discomfort [1]: 1 (2) number of patients (percent)
- Epistaxis [1]: — (represents zero events)
- Erysipelas [1]: 1 (2) number of patients (percent)
- Fatigue [1]: 6 (10) number of patients (percent)
- Frequent bowel movements [1]: 1 (2) number of patients (percent)
- Headache [1]: 2 (3) number of patients (percent)
- Heavy menstrual bleeding [1]: — (represents zero events)
- Hypoesthesia [1]: 1 (2) number of patients (percent)
- Hypophosphatemia [1]: — (represents zero events)
- I lot flush [1]: 1 (2) number of patients (percent)
- Ilypokalemia [1]: 1 (2) number of patients (percent)
- Increased white blood cell count [1]: 1 (2) number of patients (percent)
- Maculo-papular rash [1]: 1 (2) number of patients (percent)
- Malaise [1]: 1 (2) number of patients (percent)
- Micturition urgency [1]: 1 (2) number of patients (percent)
- Muscle spasms [1]: 1 (2) number of patients (percent)
- Myalgia [1]: 1 (2) number of patients (percent)
- Nasal congestion [1]: — (represents zero events)
- Nasopharyngitis [1]: — (represents zero events)
- Nausea [1]: 18 (30) number of patients (percent)
- Peripheral swelling [1]: — (represents zero events)
- Petechiae [1]: — (represents zero events)
- Pruritus [1]: 2 (3) number of patients (percent)
- Purpura [1]: — (represents zero events)
- Rash [1]: 1 (2) number of patients (percent)
- Thrombocytopena [1]: — (represents zero events)
- Upper abdominal pain [1]: 2 (3) number of patients (percent)
- Upper respiratory tract infection [1]: — (represents zero events)
- Urinary tract infection [1]: — (represents zero events)
- Vomiting [1]: 3 (5) number of patients (percent)
- diarrhea [1]: 32%
- fatigue [1]: 10%
- nausea [1]: 30%
- Abdominal discomfort [2]: 1 (2) number of patients (percent)
- Abdominal distension [2]: 4 (7) number of patients (percent)
- Abdominal pain [2]: — (represents zero events)
- Abnormal dreams [2]: 1 (2) number of patients (percent)
- Akathisia [2]: 1 (2) number of patients (percent)
- Alopecia [2]: — (represents zero events)
- Anemia [2]: — (represents zero events)
- Any TEAE [2]: 27 (45) number of patients (percent)
- Arthralgia [2]: — (represents zero events)
- Arthropod bite [2]: — (represents zero events)
- Back pain [2]: — (represents zero events)
- Conjunctival hemorrhage [2]: — (represents zero events)
- Contusion [2]: 1 (2) number of patients (percent)
- Costochondritis [2]: — (represents zero events)
- Cough [2]: — (represents zero events)
- Decreased appetite [2]: 1 (2) number of patients (percent)
- Defecation urgency [2]: — (represents zero events)
- Diarrhea [2]: 16 (27) number of patients (percent)
- Dizziness [2]: — (represents zero events)
- Dyspepsia [2]: 1 (2) number of patients (percent)
- Dyspnea [2]: — (represents zero events)
- Dyspnea exertional [2]: — (represents zero events)
- Edema [2]: 1 (2) number of patients (percent)
- Epigastric discomfort [2]: — (represents zero events)
- Epistaxis [2]: — (represents zero events)
- Erysipelas [2]: — (represents zero events)
- Fatigue [2]: 5 (8) number of patients (percent)
- Frequent bowel movements [2]: — (represents zero events)
- Headache [2]: 2 (3) number of patients (percent)
- Heavy menstrual bleeding [2]: — (represents zero events)
- Hypoesthesia [2]: — (represents zero events)
- Hypophosphatemia [2]: — (represents zero events)
- I lot flush [2]: — (represents zero events)
- Ilypokalemia [2]: 1 (2) number of patients (percent)
- Increased white blood cell count [2]: — (represents zero events)
- Maculo-papular rash [2]: 1 (2) number of patients (percent)
- Malaise [2]: 1 (2) number of patients (percent)
- Micturition urgency [2]: 1 (2) number of patients (percent)
- Muscle spasms [2]: 1 (2) number of patients (percent)
- Myalgia [2]: 1 (2) number of patients (percent)
- Nasal congestion [2]: — (represents zero events)
- Nasopharyngitis [2]: — (represents zero events)
- Nausea [2]: 16 (27) number of patients (percent)
- Peripheral swelling [2]: — (represents zero events)
- Petechiae [2]: — (represents zero events)
- Pruritus [2]: 1 (2) number of patients (percent)
- Purpura [2]: — (represents zero events)
- Rash [2]: 1 (2) number of patients (percent)
- Thrombocytopena [2]: — (represents zero events)
- Upper abdominal pain [2]: 1 (2) number of patients (percent)
- Upper respiratory tract infection [2]: — (represents zero events)
- Urinary tract infection [2]: — (represents zero events)
- Vomiting [2]: 2 (3) number of patients (percent)
- Abdominal discomfort [3]: — (represents zero events)
- Abdominal distension [3]: — (represents zero events)
- Abdominal pain [3]: 2 (3) number of patients (percent)
- Abnormal dreams [3]: — (represents zero events)
- Akathisia [3]: — (represents zero events)
- Alopecia [3]: — (represents zero events)
- Anemia [3]: — (represents zero events)
- Any TEAE [3]: 15 (25) number of patients (percent)
- Arthralgia [3]: — (represents zero events)
- Arthropod bite [3]: — (represents zero events)
- Back pain [3]: 1 (2) number of patients (percent)
- Conjunctival hemorrhage [3]: — (represents zero events)
- Contusion [3]: — (represents zero events)
- Costochondritis [3]: — (represents zero events)
- Cough [3]: — (represents zero events)
- Decreased appetite [3]: — (represents zero events)
- Defecation urgency [3]: 1 (2) number of patients (percent)
- Diarrhea [3]: 3 (5) number of patients (percent)
- Dizziness [3]: — (represents zero events)
- Dyspepsia [3]: — (represents zero events)
- Dyspnea [3]: — (represents zero events)
- Dyspnea exertional [3]: — (represents zero events)
- Edema [3]: — (represents zero events)
- Epigastric discomfort [3]: 1 (2) number of patients (percent)
- Epistaxis [3]: — (represents zero events)
- Erysipelas [3]: 1 number of patients (percent) and 1 (2) number of patients (percent)
- Fatigue [3]: 1 (2) number of patients (percent)
- Frequent bowel movements [3]: 1 (2) number of patients (percent)
- Headache [3]: — (represents zero events)
- Heavy menstrual bleeding [3]: — (represents zero events)
- Hypoesthesia [3]: 1 (2) number of patients (percent)
- Hypophosphatemia [3]: — (represents zero events)
- I lot flush [3]: 1 (2) number of patients (percent)
- Ilypokalemia [3]: — (represents zero events)
- Increased white blood cell count [3]: 1 (2) number of patients (percent)
- Maculo-papular rash [3]: — (represents zero events)
- Malaise [3]: — (represents zero events)
- Micturition urgency [3]: — (represents zero events)
- Muscle spasms [3]: — (represents zero events)
- Myalgia [3]: — (represents zero events)
- Nasal congestion [3]: — (represents zero events)
- Nasopharyngitis [3]: — (represents zero events)
- Nausea [3]: 2 (3) number of patients (percent)
- Peripheral swelling [3]: — (represents zero events)
- Petechiae [3]: — (represents zero events)
- Pruritus [3]: 1 (2) number of patients (percent)
- Purpura [3]: — (represents zero events)
- Rash [3]: — (represents zero events)
- Thrombocytopena [3]: — (represents zero events)
- Upper abdominal pain [3]: 1 (2) number of patients (percent)
- Upper respiratory tract infection [3]: — (represents zero events)
- Urinary tract infection [3]: — (represents zero events)
- Vomiting [3]: 1 (2) number of patients (percent)
- Abdominal discomfort [4]: — (represents zero events)
- Abdominal distension [4]: — (represents zero events)
- Abdominal pain [4]: — (represents zero events)
- Abnormal dreams [4]: — (represents zero events)
- Akathisia [4]: — (represents zero events)
- Alopecia [4]: — (represents zero events)
- Anemia [4]: — (represents zero events)
- Arthralgia [4]: — (represents zero events)
- Arthropod bite [4]: — (represents zero events)
- Back pain [4]: — (represents zero events)
- Conjunctival hemorrhage [4]: — (represents zero events)
- Contusion [4]: — (represents zero events)
- Costochondritis [4]: — (represents zero events)
- Cough [4]: — (represents zero events)
- Decreased appetite [4]: — (represents zero events)
- Defecation urgency [4]: — (represents zero events)
- Diarrhea [4]: — (represents zero events)
- Dizziness [4]: — (represents zero events)
- Dyspepsia [4]: — (represents zero events)
- Dyspnea [4]: — (represents zero events)
- Dyspnea exertional [4]: — (represents zero events)
- Edema [4]: — (represents zero events)
- Epigastric discomfort [4]: — (represents zero events)
- Epistaxis [4]: — (represents zero events)
- Erysipelas [4]: — (represents zero events)
- Fatigue [4]: — (represents zero events)
- Frequent bowel movements [4]: — (represents zero events)
- Headache [4]: — (represents zero events)
- Heavy menstrual bleeding [4]: — (represents zero events)
- Hypoesthesia [4]: — (represents zero events)
- Hypophosphatemia [4]: — (represents zero events)
- I lot flush [4]: — (represents zero events)
- Ilypokalemia [4]: — (represents zero events)
- Increased white blood cell count [4]: — (represents zero events)
- Maculo-papular rash [4]: — (represents zero events)
- Malaise [4]: — (represents zero events)
- Micturition urgency [4]: — (represents zero events)
- Muscle spasms [4]: — (represents zero events)
- Myalgia [4]: — (represents zero events)
- Nasal congestion [4]: — (represents zero events)
- Nasopharyngitis [4]: — (represents zero events)
- Nausea [4]: — (represents zero events)
- Peripheral swelling [4]: — (represents zero events)
- Petechiae [4]: — (represents zero events)
- Pruritus [4]: — (represents zero events)
- Purpura [4]: — (represents zero events)
- Rash [4]: — (represents zero events)
- Thrombocytopena [4]: — (represents zero events)
- Upper abdominal pain [4]: — (represents zero events)
- Upper respiratory tract infection [4]: — (represents zero events)
- Urinary tract infection [4]: — (represents zero events)
- Vomiting [4]: — (represents zero events)
- grade 1 candida infection (unrelated to treatment): ‡Other infections and infestations not listed in the table that were unrelated to treatment and that occurred in a single patient each included grade 1 candida infection, fungal skin infection, and osteomyelitis; and grade 2 infected skin ulcer and oral herpes.
- patient deaths (unrelated to treatment, 400 mg bid discontinued day 8, died 135 days after initiating): 1 patient
